Like-named read-outs stand apart in the source and are kept apart here.
What was measured:
[1] = system: NCI-H358 cells (express KRas G12C), Phospho-ERK; assay: Cellular inhibition of KRas G12C: Phospho-ERK in NCI-H358 cells; type: cell-based; details: Homo sapiens, pERK(Thr202/Tyr204) normalized with GAPDH, NCI-H358 cells, 3 hours, read-out: IC50
In short: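 IC50 derived by 4-parameter fit of GAPDH-normalized pERK(Thr202/Tyr204) signal, as percent of DMSO control. Signal came from in-cell immunodetection with infrared secondaries after 3 h compound exposure of KRas G12C NCI-H358 cells at 0.5% DMSO.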

KRas G12C = KRas G12C (Homo sapiens, UniProt P01116, C118S/C51S/C80L/G12C); assay: KRas G12C Modification Assay (LCMS detection of covalent adduct); type: binding; details: normalized percent of control; tested at 5 μM concentration for 3 hours
In short: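 Cys-light KRas G12C mutant protein incubated with compound in K-Ras assay buffer, reactions quenched at set time points with 25 mM acetic acid and analysed by intact-protein LC/MS on a C-3 column. Deconvoluted mass heights expressed as percent of control (POC) relative to compound-free protein.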

## C=CC(=O)N1CCN(c2nc(OCCN3CCCCC3)nc3c2CCN(c2cc(O)cc4ccccc24)C3)CC1 [Example 52, 1-[4-[7-(3-hydroxy-1-naphthyl)-2-[2-(1-piperidyl)ethoxy]-6,8-dihydro-5H-pyrido[3,4-d]pyrimidin-4-yl]piperazin-1-yl]prop-2-en-1-one]
[1]; NCI-H358, 3 h
  IC50: 0.1 to 1000 nM
KRas G12C
  POC: C (“C”>50% POC)

## C=CC(=O)N1CCN(c2nc(OC[C@@H]3CCCN3C)nc3c2CCN(c2cccc4ccccc24)C3)CC1CC#N (stereo partly drawn) [Example 147, 2-[4-[2-[[(2S)-1-methylpyrrolidin-2-yl]methoxy]-7-(1-naphthyl)-6,8-dihydro-5H-pyrido[3,4-d]pyrimidin-4-yl]-1-prop-2-enoyl-piperazin-2-yl]acetonitrile]
[1]
  IC50: 0.1 to 1000 nM
KRas G12C
  POC: C (“C”>50% POC)

## C=CC(=O)N1CCN(c2nc(OC3CCN(C4CC4)CC3)nc3c2CCN(c2cc(O)cc4ccccc24)C3)CC1 [Example 100, 1-(4-(2-((1-cyclopropylpiperidin-4-yl)oxy)-7-(3-hydroxynaphthalen-1-yl)-5,6,7,8-tetrahydropyrido[3,4-d]pyrimidin-4-yl)piperazin-1-yl)prop-2-en-1-one]
[1]; NCI-H358, 3 h
  IC50: > 1000 nM
KRas G12C
  POC: C (“C”>50% POC)

## C=CC(=O)N1CCN(c2nc(OC[C@@H]3CCCN3C)nc3c2CCN(c2cccc4ccc(C)cc24)C3)C[C@@H]1CC#N [Example 326, 2-((S)-1-acryloyl-4-(7-(7-methylnaphthalen-1-yl)-2-(((S)-1-methylpyrrolidin-2-yl)methoxy)-5,6,7,8-tetrahydropyrido[3,4-d]pyrimidin-4-yl)piperazin-2-yl)acetonitrile]
[1]; NCI-H358, 3 h
  IC50: 0.1 to 1000 nM
KRas G12C
  POC: C (“C”>50% POC)

## C=CC(=O)N1CCN(c2nc(OCCCN3CC4CC4C3)nc3c2CCN(c2cc(O)cc4ccccc24)C3)CC1 (stereo not drawn) [Example 206, 1-(4-(2-(3-(3-azabicyclo[3.1.0]hexan-3-yl)propoxy)-7-(3-hydroxynaphthalen-1-yl)-5,6,7,8-tetrahydropyrido[3,4-d]pyrimidin-4-yl)piperazin-1-yl)prop-2-en-1-one]
[1]
  IC50: 0.1 to 1000 nM
KRas G12C
  POC: C (“C”>50% POC)

## C=CC(=O)N1CCN(c2nc(OC[C@H]3CN(C)CCO3)nc3c2CCN(c2cccc4ccccc24)C3)C[C@@H]1CC#N [Example 448, 2-((S)-1-Acryloyl-4-(2-(((R)-4-methylmorpholin-2-yl)methoxy)-7-(naphthalen-1-yl)-5,6,7,8-tetrahydropyrido[3,4-d]pyrimidin-4-yl)piperazin-2-yl)acetonitrile]
[1]; NCI-H358, 3 h
  IC50: 0.1 to 1000 nM
KRas G12C
  POC: C (“C”>50% POC)

## C=CC(=O)N1CCN(c2nc(OC[C@@H]3CCCN3C)nc3c2CCN(c2cccc(C)c2C)C3)CC1CC#N (stereo partly drawn) [Example 228, 2-(1-acryloyl-4-(7-(2,3-dimethylphenyl)-2-(((S)-1-methylpyrrolidin-2-yl)methoxy)-5,6,7,8-tetrahydropyrido[3,4-d]pyrimidin-4-yl)piperazin-2-yl)acetonitrile]
[1]; NCI-H358, 3 h
  IC50: 0.1 to 1000 nM
KRas G12C
  POC: C (“C”>50% POC)

## C=CC(=O)N1CCN(c2nc(O[C@H](C)CN(C)C)nc3c2CCN(c2cc(O)ccc2OC(F)(F)F)C3)CC1 [Example 78, (R)-1-(4-(2-((1-(dimethylamino)propan-2-yl)oxy)-7-(5-hydroxy-2-(trifluoromethoxy)phenyl)-5,6,7,8-tetrahydropyrido[3,4-d]pyrimidin-4-yl)piperazin-1-yl)prop-2-en-1-one]
[1]
  IC50: > 1000 nM
KRas G12C
  POC: C (“C”>50% POC)

## C=CC(=O)N1CCN(c2nc(OCCCN3CCOCC3)nc3c2CCN(c2ccc(O)cc2OC(F)(F)F)C3)CC1 [Example 106, 1-(4-(7-(4-hydroxy-2-(trifluoromethoxy)phenyl)-2-(3-morpholinopropoxy)-5,6,7,8-tetrahydropyrido[3,4-d]pyrimidin-4-yl)piperazin-1-yl)prop-2-en-1-one]
[1]
  IC50: > 1000 nM
KRas G12C
  POC: A (“A”≤25% POC)

— patent US10125134B2 (Mirati Therapeutics, Inc., priority 2016, dated 2018)
